Assay results as given in patent publication US6262095A, “Use of tricyclic derivatives of 1,4-dihydro-1,4-dioxo-1H-naphthalene, novel compounds obtained and their application in theraphy” (Laboratoire Innothera, priority 1995, dated 2001).

Experiments:
[1] = test system: arterial pressure of the anesthetized rat; experiment: Arterial pressure of the anesthetized rat; assay type: in vivo; conditions: i.v. bolus at least up to 28 mg/kg
Procedure: The contractile effects are also measured in vitro under dynamic flow conditions, by the pressure developed by the vascular beds that are perfused at a constant flow rate. At the mesenteric level, the selective effect on veins is studied using the model of a double simultaneous and separate infusion of the arterial and venous networks model developed by T. Warner (British J. Pharmacol., 1990, Vol. 99, pp. 427-433). The separation of the two networks is achieved by cutting the vessels and the tissues along the intestinal border. The networks are perfused at 2 mL.min^-1 with a Krebs solution (37.5° C.), which is aerated using 95% O2 and 5% CO2. In vivo, the arterial and venous pressures are measured in the anesthetized animal, under basal conditions and after circulatory arrest caused by the swelling of a balloon catheter introduced at the level of the left atrium. During the cardiac arrest, the venous tone (average circulatory filling pressure at a constant blood volume) is calculated from the venous and arterial pressures measured at equilibrium and corrected as a function of the relative differences in compliance between these two networks (Samar & Coleman, Am. J. Physiol., 1978, Vol. 234: pp. H94-100; Yamamoto et al., Am. J. Physiol., 1980, Vol. 238: pp. H823-828).

[2] = test system: jugular vein of rabbits; experiment: Contraction of rabbit jugular vein under depolarizing hyperpotassic conditions; assay type: cell-based; conditions: Oryctolagus cuniculus, pH 7.4, read-out: ED50 (contraction)
Procedure: (§1) The contractile effects are measured in vitro under static conditions on vascular capacitance or resistance rings of saphenous, femoral, jugular, mesenteric, and caval veins . . . and on femoral, carotid, basilar, or mesenteric arteries, as well as the thoracic or abdominal aorta . . . in rats (Wistar, 200-250 g), rabbits (New Zealand, 2-2.5 kg), guinea pigs (Dunkin Hartley 250-300 g).
(§2) The rings are placed in a chamber for isolated organs (25 mL for capacitance vessels and 2.5 mL for resistance vessels according to Mulvany), and maintained under isometric conditions using two rigid threads inserted inside the vessel, avoiding causing damage to the endothelium. The vessels are bathed in a modified Krebs solution (in mM: NaCl=118; KCl=4.6; CaCl2 =2.5; MgSO4 =1.2; KH2 PO4 =1.17; NaHCO3 =25; glucose=11), continuously aerated using a gaseous mixture of 95% O2 and 5% Co2, at a pH=7.4, and regulated by thermostat at 37° C. The rings are adjusted to their optimal point as far as the tension-length relationship is concerned. […] The pharmacological studies are carried out after a few standardized preliminary contractile stimulations using a depolarizing solution (hyperpotassic type obtained by replacing NaCl with KCl in equimolar quantities), along with rinsings and periods of equilibration in a pure physiological solution. […]

[3] = test system: jugular vein of the rat; experiment: Contraction of rat jugular vein under depolarizing hyperpotassic conditions; assay type: cell-based; conditions: pH 7.4, read-out: ED50 (contraction)
Procedure: as §1, §2

[4] = test system: hyperpermeability induced by zymosan in rats; experiment: Inflammatory hyperpermeability induced by zymosan in rats; assay type: in vivo, rat (Wistar); conditions: rat, oral, 5 mg/kg
Procedure: The vascular permeability is studied in vivo by measuring the extravasation of albumin, the quantity of which is determined using an albumin-binding dye (Evans blue).
The hyperpermeability is induced by the intradermal injection of a solution of histamine, bradykinin, or zymosan.
The abdominal walls of the rats (Wistar, 200-230 g) are shorn 1 h before the start of the experiment. The product to be tested is injected by the intraperitoneal route or orally 1-4 h before the sacrifice. The rats are anesthetized with a halothane mixture. They then receive an intradermal injection in their abdomen of 0.10 or 0.15 mL (or for histamine 6.7 or […]) of inflammatory agent and an intravenous injection of 1 mL of 0.5% Evans blue solution in the vein of the penis. These injections are carried out 30 min before the sacrificing.
30 min after these two injections, the rats are sacrificed by cervical dislocation.
At the site of the injection of the inflammatory agent, the skin is cut and placed into glass tubes with a ground[-glass] neck containing 3 mL of fuming hydrochloric acid. […] After allowing the preparation to stand for 30 min, 7 mL of dichloromethane are added. The tubes are periodically agitated for 1 h. The aqueous phase is eliminated by aspiration, and the organic "dichloromethane" phase is filtered. The optical densities are quantified by absorption spectrophotometry at a wavelength of 620 nm, against a blank [control] containing only dichloromethane. The averages of the optical densities of the different lots of treated or control animals are calculated, then a percentage of variation of the values corresponding to the treated [experimental] animals compared to those of the control animals is calculated.

[5] = test system: mice; experiment: Single oral administration toxicity in mice; assay type: in vivo, mouse; conditions: single oral administration, 1 g/kg
Source text: Moreover, the compounds of the invention and their possible salts have a very low toxicity.

[6] = test system: saphenous vein in rabbits; experiment: Potentiation of the contractile response of the rabbit saphenous vein to noradrenaline; assay type: cell-based
Procedure: as §1, §2

O=C1c2ccccc2C(=O)c2sc(-c3ccco3)nc21 [Example n, 4,9-Dihydro-4,9-dioxo-2-(2-furyl)-naphtho[2,3-d]thiazole]
arterial pressure [1]: does not affect the arterial pressure | EC50 [2]: 16 nM | EC50 [3]: 50 nM | Zymosan-induced hyperpermeability, effect after 2 h ([4]; 2 h): 0 % of the control | Zymosan-induced hyperpermeability, effect after 4 h ([4]; 4 h): -21 % of the control | observed signs [5]: red urine | toxic effect and mortality [5]: no observable toxic effect and no mortality | change of noradrenaline ED50 [6]: reduced by a factor of ten | Emax ([6]; Oryctolagus cuniculus, read-out: increase of noradrenaline Emax): 30%
